Results: paper PMC4472782, “Antibacterial Characterization of Novel Synthetic Thiazole Compounds against Methicillin-Resistant Staphylococcus pseudintermedius” (PLoS ONE, 2015)
In brackets after ≈: the same amount, converted by molar mass. Where a name gives a salt, the structure may show the parent alone. Read-outs that look alike come from different tables or passages of the source.

Columns and labels:
[1] = system: methicillin-sensitive Staphylococcus pseudintermedius; test: MIC by broth microdilution against MSSP clinical isolates; assay type: cell-based; details: for MIC50: lowest concentration inhibiting growth in 50% of isolates; for MIC: read-out: MIC Range
Method: (§1) Fifteen isolates of S. pseudintermedius (nine MSSP and six MRSP), identified at the Indiana Animal Disease Diagnostic Laboratory from specimens collected from dogs admitted to the small animal teaching hospital at Purdue University, were included in the study. The specimens were not collected specifically for this research study but were obtained from patients admitted to the hospital for treatment. Clinical specimens were inoculated onto 5% sheep blood agar and incubated at 35°C for 18–24 hours. Standard methods including examination of colony morphology and hemolysis and biochemical tests such as tube coagulase, Voges-Proskauer (VP) and fermentation tests for maltose, trehalose and lactose, were used in addition to matrix-assisted laser desorption ionization time of flight mass spectrometry to identify isolates. Antimicrobial susceptibility was determined by broth microdilution using the SensiTitre (Thermofisher Scientific).
(§2) Bacteria were prepared in phosphate-buffered saline (PBS) until a McFarland standard of 0.5 was achieved. The solution was subsequently diluted 1:300 in Mueller-Hinton broth (MHB) to reach a starting inoculum of 1 × 10^5 colony-forming units (CFU/mL). Bacteria were then transferred to a 96-well microtiter plate. Thiazole compounds and antibiotics were added (in triplicate) to wells in the first row of the microtiter plate and then serially diluted along the vertical axis. […] The MIC was categorized as the concentration where there was no visible growth of bacteria observed.

[2] = system: methicillin-resistant Staphylococcus pseudintermedius; test: MIC by broth microdilution against MRSP clinical isolates; assay type: cell-based; details: for MIC50: Staphylococcus pseudintermedius
Method: as §1, §2

[3] = system: methicillin-sensitive Staphylococcus pseudintermedius; test: MBC determination against MSSP clinical isolates; assay type: cell-based; details: nine MSSP isolates; for MBC: Staphylococcus pseudintermedius, lowest concentration that killed 50% of isolates, read-out: MBC50
Method: (§3) The MBC was determined by plating 5 μL from wells on the 96-well microtiter plate (where the MIC was determined) where no growth was observed onto Tryptic soy agar (TSA) plates. […] The MBC was categorized as the concentration where ≥99% reduction in bacterial cell count was observed.

[4] = system: methicillin-resistant Staphylococcus pseudintermedius; test: MBC determination against MRSP clinical isolates; assay type: cell-based; details: for MBC: Staphylococcus pseudintermedius, read-out: MBC50
Method: as §3

MRSP SP3 [5] = test: Post-antibiotic effect against MRSP; assay type: cell-based, Staphylococcus pseudintermedius; details: 4 × MIC for one hour
Method: A tube containing untreated bacterial cells served as a control. Afterward, the compound/antibiotic was washed out by diluting bacteria 1:1000 in MHB. Counts of CFU for all cultures were obtained after washing. Aliquots (100 μL) of bacteria were removed every hour (for 10 hours), serially diluted in PBS, and plated on TSA plates. TSA plates were incubated for 20 hours at 37°C before CFU values were determined.

MRSP SP3 [6] = test: Time-kill analysis against MRSP; assay type: cell-based, Staphylococcus pseudintermedius; details: 4 × MIC; for time required to completely eliminate MRSP: MRSP SP3, 24 hour incubation at 37°C
Method: MRSP SP3 cells in late logarithmic growth phase were diluted to ~1 × 10^6 CFU/mL and exposed to concentrations equivalent to 4 × MIC (in triplicate) of thiazole compounds 1–6 and rifampicin in MHB. Samples (20 μL) were collected after 0, 2, 4, 6, 8, 10, 12, and 24 hours of incubation at 37°C and subsequently serially diluted in PBS. Bacteria were then transferred to TSA plates and incubated at 37°C for 20–24 hours before viable CFU/mL values were determined.

MRSP SP3 [7] = test: Cell membrane disruption (260/280 nm cell leakage) analysis; assay type: cell-based, Staphylococcus pseudintermedius; details: for absorbance (260 and 280 nm leakage) compared with untreated cells, statistical result: MRSP SP3, 30 minutes, one-way ANOVA, Tukey, P ≤ 0.05
Method: In order to investigate the antimicrobial effect of the thiazole compounds on the integrity of the bacterial cell membrane, the release of 260 and 280 nm absorbing components was determined spectrophotometrically. […] Untreated MRSP SP3 cells or cells treated with vancomycin (inhibits cell wall synthesis in bacterial cells) served as negative controls. For the release of 260 and 280 nm absorbing material, the bacterial suspension (control) was treated with lysostaphin (in 50 mM Tris-HCl, pH 8.00) for 30 minutes. Lysostaphin was used as a positive control due to its mode of action being the disruption of the cross-linking of the pentaglycin bridges in the cell wall of staphylococci bacteria. The absorbance of cell supernatant at 260 and 280 nm was determined using a spectrophotometer (Jenway 6305). The average OD260 and OD280 values of duplicates of each treatment option were calculated and expressed as the proportion of average OD260 (or OD280) for each treatment option compared to the average OD260 (or OD280) for the positive control (lysostaphin).
(§4) All statistical analyses were performed with GraphPad Prism 6.0 (GraphPad Software, La Jolla, CA). Data generated from cytotoxicity analysis of the thiazole compounds against J774.A1 cells and the 260 and 280 nm cell leakage analysis were analyzed using one-way ANOVA, with post hoc Tukey's multiple comparisons test (P < 0.05).

[8] = system: murine macrophage cell line (J774.A1); test: In vitro cytotoxicity analysis (MTS assay); assay type: cell-based; details: 10 μg/mL, J774.A1, two hours
Method: Compounds were assayed at concentrations of 5 μg/mL, 10 μg/mL, 20 μg/mL, and 40 μg/mL against a murine macrophage cell line (J774.A1) (ATCC TIB-67, American Type Culture Collection (ATCC), Manassas, VA, USA) to determine the potential toxic effect in vitro. Cells were cultured in Dulbeco’s modified Eagle’s medium (Sigma-Aldrich, St. Louis, MO, USA) with 10% fetal bovine serum (USA Scientific, Inc.) at 37°C with 5% CO2. Controls received DMSO alone at a concentration equal to that in drug-treated cell samples. The cells were incubated with the compounds in a 96-well plate at 37°C and 5.0% CO2 for two hours prior to addition of the assay reagent MTS 3-(4,5-dimethylthiazol-2-yl)-5-(3-carboxymethoxyphenyl)-2-(4-sulfophenyl)-2H-tetrazolium) (Promega, Madison, WI, USA). Absorbance readings were taken using a kinetic ELISA microplate reader (Molecular Devices, Sunnyvale, CA, USA). The quantity of viable cells after treatment with each compound was expressed as a percentage of the control, DMSO.
as §4

MRSP SP3 [9] = test: Checkerboard assay of thiazole compounds with oxacillin; assay type: cell-based, Staphylococcus pseudintermedius; details: for ƩFIC: combination with oxacillin, ≤ 0.5 synergistic, > 0.5 to ≤ 4.0 indifference, > 4 antagonistic; for relationship with oxacillin: checkerboard assay
Method: The relationship between the thiazole compounds and oxacillin was assessed via a standard checkerboard assay. Bacteria (MRSP SP3) equivalent to a McFarland standard of 0.5 were prepared in PBS. The bacteria were next diluted in MHB to achieve a starting cell density of 1 × 10^5 CFU/mL. MHB was transferred to all wells of a 96-well microtiter plate. […] Oxacillin was serially diluted along the abscissa of the microtiter plate while the thiazole compound was serially diluted along the ordinate. The plate was incubated for 22–24 hours at 37°C. The MIC of the test compound in combination with oxacillin was determined as the lowest concentration of each compound/antibiotic where no visible growth of bacteria was observed. The fractional inhibitory concentration index (ƩFIC) was calculated for each combination as described previously. A synergistic relationship was classified as an FIC index less than or equal to 0.5. […]

MRSP (SP3) = test: Multi-step resistance selection; assay type: cell-based, Staphylococcus pseudintermedius; details: for shift in the MIC over ten passages: MRSP SP3, ten serial passages; for MIC: Staphylococcus pseudintermedius
Method: To assess the ability of MRSP to develop resistance to the thiazole compounds, a multi-step resistance selection experiment was performed, as described elsewhere. The broth microdilution method for MIC determination against a clinical isolate of MRSP (SP3) was repeated for ten passages over a period of ten days. The initial inoculum was prepared to a McFarland standard of 0.5. The solution was subsequently diluted 1:300 in MHB to reach a starting inoculum of 1 × 10^5 CFU/mL. For each subsequent passage, the inoculum for the MIC determination was adjusted to a final density of approximately 5 × 10^5 CFU/mL using the contents of a well containing a subinhibitory concentration of the compound (where bacterial growth was observed from the previous passage). Bacteria were then transferred to a new 96-well microtiter plate.

[10] = six MRSP isolates, triplicate, read-out: MIC50

Compound	MIC50 ([1]; nine MSSP isolates, triplicate) [µg/mL]	MIC ([1]; nine MSSP isolates, triplicate) [µg/mL]	MIC50 [2, 10] [µg/mL]	MBC [3] [µg/mL]	MBC ([4]; six MRSP isolates) [µg/mL]	Post-antibiotic Effect (MRSP SP3 [5]) [h]	MIC Range ([2]; six MRSP isolates, triplicate) [µg/mL]	MBC Range [3] [µg/mL]	MBC Range ([4]; six MRSP isolates) [µg/mL]	time required to completely eliminate MRSP (MRSP SP3 [6])	absorbance (260 and 280 nm leakage) compared with untreated cells, statistical result (MRSP SP3 [7])	toxicity to murine macrophage cells (MTS assay) [8]	ƩFIC (MRSP SP3 [9])	shift in the MIC over ten passages (MRSP (SP3))	MIC (MRSP (SP3); read-out: initial MIC) [µg/mL]	other results
CCC[C@@H]1C[C@@H](C(=O)N[C@@H]([C@H]2O[C@H](SC)[C@H](O)[C@@H](O)[C@H]2O)[C@H](C)Cl)N(C)C1 [Clindamycin, Clindamycin hydrochloride monohydrate, reference compound]	0.48	0.24 to 61.4	0.48	0.48	30.7	2	–	–	–	–	–	–	–	–	–	Post-antibiotic Effect (MRSP SP3 [5]; listed as clindamycin): two hours
C/C(=N\NC(=N)N)c1sc(-c2ccc(-c3ccccc3)cc2)nc1C [Compound 2]	0.3 (≈ 0.858 µM)	0.15 to 0.61 (≈ 0.429 to 1.75 µM)	0.46 (≈ 1.32 µM)	0.61 (≈ 1.75 µM)	0.61 (≈ 1.75 µM)	8	0.15 to 0.61	0.15 to 2.42	0.30 to 0.81	eight hours	no statistical difference	toxic	0.56	–	–	intracellular content (at 260 nm) released compared to cells treated with lysostaphin (MRSP SP3 [7]; 4 × MIC, 30 minutes, MRSP SP3): Less than 20%
C/C(=N\NC(=N)N)c1sc(-c2ccc(-c3ccc(F)cc3)cc2)nc1C [Compound 4]	0.73 (≈ 1.99 µM)	0.18 to 2.94 (≈ 0.49 to 8 µM)	–	1.1 (≈ 2.99 µM)	–	>9	0.37 to 1.47	0.18 to 2.94	–	12 h	–	not toxic	0.63	two-fold increase	1.47 (≈ 4 µM)	MIC50 [2]: 1.47 µg/mL (≈ 4 µM); MBC [4]: 1.47 µg/mL (≈ 4 µM)
C/C(=N\NC(=N)N)c1sc(-c2ccc(-c3ccc(C(F)(F)F)cc3)cc2)nc1C [Compound 5]	0.42 (≈ 1.01 µM)	–	0.42 (≈ 1.01 µM)	0.42 (≈ 1.01 µM)	0.42 (≈ 1.01 µM)	8	0.21 to 1.67	0.21 to 6.67	0.21 to 3.34	eight hours	–	not toxic	0.38	two-fold increase	1.67 (≈ 4 µM)	MIC [1]: 0.21 to 1.67 µg/mL (≈ 0.503 to 4 µM); MIC (MRSP (SP3); read-out: MIC after the second serial passage (stable until the seventh passage)): 3.34 µg/mL (≈ 8 µM); MIC (MRSP (SP3); read-out: MIC at the seventh passage): 6.68 µg/mL (≈ 16 µM); relationship with oxacillin (MRSP SP3 [9]): synergistic
C/C(=N\NC(=N)N)c1sc(-c2ccc(-c3cccc4ccccc34)cc2)nc1C [Compound 6]	0.8 (≈ 2 µM)	0.2 to 1.6 (≈ 0.501 to 4 µM)	0.4 (≈ 1 µM)	1.06 (≈ 2.65 µM)	0.8 (≈ 2 µM)	>9	0.20 to 1.60	0.20 to 3.19	0.20 to 1.60	within two hours	–	toxic	0.38	four-fold increase	1.6 (≈ 4 µM)	relationship with oxacillin (MRSP SP3 [9]): synergistic
CO[C@H]1/C=C/O[C@@]2(C)Oc3c(C)c(O)c4c(O)c(c(/C=N/N5CCN(C)CC5)c(O)c4c3C2=O)NC(=O)/C(C)=C\C=C\[C@H](C)[C@H](O)[C@@H](C)[C@@H](O)[C@@H](C)[C@H](OC(C)=O)[C@@H]1C [Rifampicin, rifampicin, reference compound]	< 0.41	< 0.41	< 0.41	< 0.41	< 0.41	>9	<0.41	<0.41	<0.41	–	–	–	–	–	–	time-kill behaviour (in words) (MRSP SP3 [6]; MRSP SP3): slow bactericidal activity against MRSP SP3 within the first eight hours of the assay before rapid bacterial re-growth; Post-antibiotic Effect (MRSP SP3 [5]; listed as rifampicin): > 9 h
CN[C@H](CC(C)C)C(=O)N[C@H]1C(=O)N[C@@H](CC(N)=O)C(=O)N[C@H]2C(=O)N[C@H]3C(=O)N[C@H](C(=O)N[C@H](C(=O)O)c4cc(O)cc(O)c4-c4cc3ccc4O)[C@H](O)c3ccc(c(Cl)c3)Oc3cc2cc(c3O[C@@H]2O[C@H](CO)[C@@H](O)[C@H](O)[C@H]2O[C@H]2C[C@](C)(N)[C@H](O)[C@H](C)O2)Oc2ccc(cc2Cl)[C@H]1O [vancomycin, vancomycin hydrochloride, reference compound]	–	–	–	–	–	–	–	–	–	–	no statistical difference	–	–	–	–	–
lysostaphin: positive control; disrupts cross-linking of the pentaglycin bridges in the cell wall of staphylococci [reference compound]	–	–	–	–	–	–	–	–	–	–	significant difference	–	–	–	–	–
